Assay results published in publication PMC11594329, “Development of LAT1-Selective Nuclear Medicine Therapeutics Using Astatine-211” (International Journal of Molecular Sciences, 2024).

Assays:
PANC-1 tumor model = assay: Tissue distribution in nude mice (PANC-1 tumor model); format: in vivo, BALB/c nu/nu mice; settings: nude mice (PANC-1 tumor model)
Experimental: BALB/c nu/nu mice (male, 5 weeks old) were purchased from Japan SLC (Shizuoka, Japan) and subcutaneously transplanted at a density of 1 × 10^7 cells/mouse. PANC-1 cells that reached the logarithmic growth phase were transplanted subcutaneously by mixing a 1 × 10^8 cells/mL cell suspension with an equivalent volume of Matrigel (Corning, Corning, NY, USA) to obtain 1 × 10^7 cells per mouse. Experiments were performed after the size of the transplanted tumor had exceeded 50 mm^3. The doses in the distribution experiments were as follows: ^211At-AAMT-OH-L (0.501 ± 0.011 MBq/mouse, 19.91 ± 0.59 g, n = 3) and ^211At-AAMT-O-Me-L (0.384 ± 0.003 MBq/mouse, 19.18 ± 0.38 g, n = 6 for Table 3), ^211At-AAMT-O-Me-L (158.10 ± 2.94 kBq/mouse, 19.27 ± 0.64 g, n = 6) and ^211At-AAMT-O-Me-D (135.08 ± 2.35 kBq/mouse, 18.64 ± 0.97 g, n = 6), ^211At-AAMT-O-Et-L (0.682 ± 0.011 MBq/mouse, 20.25 ± 1.41 g, n = 6), ^211At-AAMT-O-Pr-L (0.927 ± 0.020 MBq/mouse, 21.74 ± 0.37 g, n = 6).

LAT1-Tet/HEK293 cells = assay: Uptake versus LAT1 expression level (Dox-induced) in LAT1-Tet/HEK293 cells; format: cell-based; settings: collection 30 min after treatment
Experimental: Each cell line was seeded in 24 wells at 1 × 10^5 cells/mL and allowed to become sub-confluent on the day of the experiment. Cells were washed with PBS (-) (Fujifilm Wako Pure Chemical, Osaka, Japan) prior to the addition of the compound, which was then replaced with uptake buffer. After treating the cells with the same dose, they were collected at predetermined time points. The cell dose was measured using a γ-counter (Wizard^2 2480; PerkinElmer, Waltham, MA, USA), and the protein content of the sample was determined. Protein content was measured using the BCA method, and the dose was corrected using the protein content (Protein Assay BCA kit, Fujifilm Wako Pure Chemical).
Figure 2 Comparison of uptake between the labeled compounds. (A) Relation between uptake ratio and LAT1 expression level. Uptake ratios were compared between LAT1-Tet/HEK293 cells. The Y-axis represents the uptake ratio, and the X-axis is concentration of Doxycycline (Dox) (TaKaRa Bio, Shiga, Japan). The collection time was 30 min after treatment. The expression of LAT1 increased with increasing amounts of Dox. (B) Comparison of uptake in PANC-1 cell line. The collection times were 0.5, 1, 5 and 10 min after treatment.
The PANC-1 cell line was obtained from the RIKEN Cell Bank and maintained in RPMI 1640 medium (Fujifilm Wako Pure Chemical, Osaka, Japan) supplemented with 10% inactivated fetal bovine serum (Thermo Fisher Scientific, Waltham, MA, USA). Mock/HEK293, LAT1/HEK293, and LAT2/HEK203 cells were kindly provided by Dr. Kanai. Cell lines controlling LAT1 expression were constructed using the Tet-on system. HEK293 cells were obtained from the RIKEN Cell Bank and maintained in E-MEM (Fujifilm Wako Pure Chemical) supplemented with 10% inactivated fetal bovine serum (Thermo Fisher Scientific) and non-essential amino acids (Fujifilm Wako Pure Chemical). The expression vectors were purchased from VectorBuilder, Inc. (Kanagawa, Japan). The purified viral particle genes were transfected into HEK293 cells. Drug selection and cloning of the cell line (Tet-LAT1/HEK293) were performed. […]

[1] = Tissue distribution in ICR mice (normal animals); format: in vivo
Text: ICR mice (male, 5 weeks old) were purchased from Japan SLC (Shizuoka, Japan) and acclimated for one week prior to use. The doses in the distribution experiments were as follows: ^211At-AAMT-O-Me-L (0.407 ± 0.005 MBq/mouse, 31.64 ± 0.76 g, n = 6), ^211At-AAMT-O-Me-D (0.351 ± 0.004 MBq/mouse, 31.44 ± 0.94 g, n = 6), ^211At-AAMT-O-Et-L (0.685 ± 0.010 MBq/mouse, 24.14 ± 3.31 g, n = 6), ^211At-AAMT-O-Pr-L (1.09 ± 0.06 MBq/mouse, 26.33 ± 0.39 g, n = 6)

CCOc1ccc(C[C@](C)(N)C(=O)O)cc1[211At] [^211At-AAMT-O-Et-L]
Tissue distribution, Bladder (PANC-1 tumor model; 1 h after injection): 15.41 ± 4.39 %ID/g
Tissue distribution, Blood (PANC-1 tumor model; 1 h after injection): 3.63 ± 0.43 %ID/g
Tissue distribution, Bone (PANC-1 tumor model; 1 h after injection): 1.92 ± 0.21 %ID/g
Tissue distribution, Brain (PANC-1 tumor model; 1 h after injection): 0.65 ± 0.11 %ID/g
Tissue distribution, Cecum (PANC-1 tumor model; 1 h after injection): 2.36 ± 0.52 %ID/g
Tissue distribution, Colon (PANC-1 tumor model; 1 h after injection): 3.80 ± 0.50 %ID/g
Tissue distribution, Heart (PANC-1 tumor model; 1 h after injection): 4.41 ± 0.46 %ID/g
Tissue distribution, Kidney (PANC-1 tumor model; 1 h after injection): 6.23 ± 0.94 %ID/g
Tissue distribution, Liver (PANC-1 tumor model; 1 h after injection): 2.54 ± 0.28 %ID/g
Tissue distribution, Lung (PANC-1 tumor model; 1 h after injection): 9.69 ± 1.20 %ID/g
Tissue distribution, Pancreas (PANC-1 tumor model; 1 h after injection): 4.56 ± 0.82 %ID/g
Tissue distribution, Salivary glands (PANC-1 tumor model; 1 h after injection): 13.69 ± 2.13 %ID/g
Tissue distribution, Small intestine (PANC-1 tumor model; 1 h after injection): 4.80 ± 0.63 %ID/g
Tissue distribution, Spleen (PANC-1 tumor model; 1 h after injection): 10.32 ± 4.17 %ID/g
Tissue distribution, Stomach (PANC-1 tumor model; 1 h after injection): 33.25 ± 8.36 %ID/g
Tissue distribution, Testis (PANC-1 tumor model; 1 h after injection): 3.29 ± 0.07 %ID/g
Tissue distribution, Thyroid (PANC-1 tumor model; 1 h after injection): 24.50 ± 4.40 %ID/g
Tissue distribution, Tumor (PANC-1 tumor model; 1 h after injection): 5.64 ± 0.91 %ID/g
Tissue distribution, Bladder (PANC-1 tumor model; 3 h after injection): 12.03 ± 3.42 %ID/g
Tissue distribution, Blood (PANC-1 tumor model; 3 h after injection): 2.23 ± 0.06 %ID/g
Tissue distribution, Bone (PANC-1 tumor model; 3 h after injection): 1.41 ± 0.16 %ID/g
Tissue distribution, Brain (PANC-1 tumor model; 3 h after injection): 0.36 ± 0.10 %ID/g
Tissue distribution, Cecum (PANC-1 tumor model; 3 h after injection): 2.80 ± 0.56 %ID/g
Tissue distribution, Colon (PANC-1 tumor model; 3 h after injection): 3.63 ± 0.34 %ID/g
Tissue distribution, Heart (PANC-1 tumor model; 3 h after injection): 5.15 ± 0.95 %ID/g
Tissue distribution, Kidney (PANC-1 tumor model; 3 h after injection): 3.74 ± 0.78 %ID/g
Tissue distribution, Liver (PANC-1 tumor model; 3 h after injection): 1.93 ± 0.23 %ID/g
Tissue distribution, Lung (PANC-1 tumor model; 3 h after injection): 10.67 ± 1.28 %ID/g
Tissue distribution, Pancreas (PANC-1 tumor model; 3 h after injection): 2.01 ± 0.20 %ID/g
Tissue distribution, Salivary glands (PANC-1 tumor model; 3 h after injection): 19.70 ± 2.93 %ID/g
Tissue distribution, Small intestine (PANC-1 tumor model; 3 h after injection): 3.23 ± 0.22 %ID/g
Tissue distribution, Spleen (PANC-1 tumor model; 3 h after injection): 13.31 ± 2.43 %ID/g
Tissue distribution, Stomach (PANC-1 tumor model; 3 h after injection): 18.47 ± 2.59 %ID/g
Tissue distribution, Testis (PANC-1 tumor model; 3 h after injection): 3.32 ± 0.33 %ID/g
Tissue distribution, Thyroid (PANC-1 tumor model; 3 h after injection): 31.26 ± 11.36 %ID/g
Tissue distribution, Tumor (PANC-1 tumor model; 3 h after injection): 5.24 ± 1.39 %ID/g
Uptake ratio versus LAT1 expression (doxycycline concentration) (LAT1-Tet/HEK293 cells): lower cellular uptake when LAT1 expression increased
Tissue distribution, Bladder ([1]; 1 h after injection): 53.22 ± 43.79 %ID/g
Tissue distribution, Blood ([1]; 1 h after injection): 2.03 ± 0.61 %ID/g
Tissue distribution, Bone ([1]; 1 h after injection): 0.71 ± 0.32 %ID/g
Tissue distribution, Brain ([1]; 1 h after injection): 0.37 ± 0.07 %ID/g
Tissue distribution, Cecum ([1]; 1 h after injection): 0.68 ± 0.25 %ID/g
Tissue distribution, Colon ([1]; 1 h after injection): 8.32 ± 4.87 %ID/g
Tissue distribution, Heart ([1]; 1 h after injection): 6.14 ± 3.75 %ID/g
Tissue distribution, Kidney ([1]; 1 h after injection): 4.70 ± 1.68 %ID/g
Tissue distribution, Liver ([1]; 1 h after injection): 1.41 ± 0.33 %ID/g
Tissue distribution, Lung ([1]; 1 h after injection): 4.47 ± 1.34 %ID/g
Tissue distribution, Pancreas ([1]; 1 h after injection): 7.31 ± 4.45 %ID/g
Tissue distribution, Salivary glands ([1]; 1 h after injection): 7.08 ± 2.00 %ID/g
Tissue distribution, Small intestine ([1]; 1 h after injection): 12.85 ± 7.35 %ID/g
Tissue distribution, Spleen ([1]; 1 h after injection): 2.90 ± 0.95 %ID/g
Tissue distribution, Stomach ([1]; 1 h after injection): 19.50 ± 5.82 %ID/g
Tissue distribution, Testis ([1]; 1 h after injection): 2.36 ± 0.28 %ID/g
Tissue distribution, Thymus ([1]; 1 h after injection): 1.14 ± 0.68 %ID/g
Tissue distribution, Thyroid ([1]; 1 h after injection): 8.98 ± 4.12 %ID/g
Tissue distribution, Bladder ([1]; 3 h after injection): 21.28 ± 15.54 %ID/g
Tissue distribution, Blood ([1]; 3 h after injection): 0.87 ± 0.27 %ID/g
Tissue distribution, Bone ([1]; 3 h after injection): 1.00 ± 0.18 %ID/g
Tissue distribution, Brain ([1]; 3 h after injection): 0.13 ± 0.05 %ID/g
Tissue distribution, Cecum ([1]; 3 h after injection): 1.67 ± 0.24 %ID/g
Tissue distribution, Colon ([1]; 3 h after injection): 1.75 ± 0.49 %ID/g
Tissue distribution, Heart ([1]; 3 h after injection): 1.87 ± 0.80 %ID/g
Tissue distribution, Kidney ([1]; 3 h after injection): 1.56 ± 0.13 %ID/g
Tissue distribution, Liver ([1]; 3 h after injection): 1.06 ± 0.21 %ID/g
Tissue distribution, Lung ([1]; 3 h after injection): 4.93 ± 1.95 %ID/g
Tissue distribution, Pancreas ([1]; 3 h after injection): 1.20 ± 0.40 %ID/g
Tissue distribution, Salivary glands ([1]; 3 h after injection): 15.05 ± 7.81 %ID/g
Tissue distribution, Small intestine ([1]; 3 h after injection): 3.21 ± 0.88 %ID/g
Tissue distribution, Spleen ([1]; 3 h after injection): 2.09 ± 1.08 %ID/g
Tissue distribution, Stomach ([1]; 3 h after injection): 38.74 ± 10.11 %ID/g
Tissue distribution, Testis ([1]; 3 h after injection): 1.20 ± 0.36 %ID/g
Tissue distribution, Thymus ([1]; 3 h after injection): 0.26 ± 0.17 %ID/g
Tissue distribution, Thyroid ([1]; 3 h after injection): 20.22 ± 6.28 %ID/g

C[C@](N)(Cc1ccc(O)c([211At])c1)C(=O)O [^211At-AAMT-OH-L, 3-[^211At] Astato-α-methyl-L-tyrosine]
Tissue distribution, Bladder (PANC-1 tumor model; 24 h after injection): 1.01 ± 0.10 %ID/g
Tissue distribution, Blood (PANC-1 tumor model; 24 h after injection): 0.04 ± 0.02 %ID/g
Tissue distribution, Bone (PANC-1 tumor model; 24 h after injection): 4.29 ± 3.90 %ID/g
Tissue distribution, Brain (PANC-1 tumor model; 24 h after injection): 0.68 ± 0.16 %ID/g
Tissue distribution, Cecum (PANC-1 tumor model; 24 h after injection): 6.60 ± 2.78 %ID/g
Tissue distribution, Colon (PANC-1 tumor model; 24 h after injection): 1.03 ± 0.34 %ID/g
Tissue distribution, Heart (PANC-1 tumor model; 24 h after injection): 2.29 ± 1.20 %ID/g
Tissue distribution, Kidney (PANC-1 tumor model; 24 h after injection): 0.07 ± 0.02 %ID/g
Tissue distribution, Liver (PANC-1 tumor model; 24 h after injection): 1.02 ± 0.60 %ID/g
Tissue distribution, Lung (PANC-1 tumor model; 24 h after injection): 1.90 ± 0.55 %ID/g
Tissue distribution, Pancreas (PANC-1 tumor model; 24 h after injection): 2.39 ± 2.03 %ID/g
Tissue distribution, Salivary glands (PANC-1 tumor model; 24 h after injection): 0.42 ± 0.17 %ID/g
Tissue distribution, Small intestine (PANC-1 tumor model; 24 h after injection): 0.09 ± 0.01 %ID/g
Tissue distribution, Spleen (PANC-1 tumor model; 24 h after injection): 0.72 ± 0.22 %ID/g
Tissue distribution, Stomach (PANC-1 tumor model; 24 h after injection): 1.84 ± 0.81 %ID/g
Tissue distribution, Testis (PANC-1 tumor model; 24 h after injection): 0.57 ± 0.44 %ID/g
Tissue distribution, Thyroid (PANC-1 tumor model; 24 h after injection): 11.65 ± 4.36 %ID/g
Tissue distribution, Tumor (PANC-1 tumor model; 24 h after injection): 0.71 ± 0.46 %ID/g
Amount remaining in cecum relative to ^211At-AAMT-O-Me-L (PANC-1 tumor model; after 24 h): 3.2 fold
Amount remaining in femur, including the bone marrow, relative to ^211At-AAMT-O-Me-L (PANC-1 tumor model; after 24 h): 5.7 fold
Amount remaining in pancreas relative to ^211At-AAMT-O-Me-L (PANC-1 tumor model; after 24 h): 4.1 fold
Amount remaining in thyroid relative to ^211At-AAMT-O-Me-L (PANC-1 tumor model; after 24 h): 5.2 fold
